# In publication PMC7351617 (Journal of neurochemistry, 2020):
# Read-outs that look alike come from different tables or passages of the source.
# Tests used:
# [1] = tested on: rat adrenal chromaffin cells (native α3β4* / α3β2β4 nAChRs); conditions: SD
# [2] = tested on: α7 nAChRs of rat adrenal chromaffin cells; format: cell-based
compound,measurement,setting,value
"CC(=O)OCC[N+](C)(C)C [ACh, Acetylcholine (ACh) chloride]",ACh-evoked currents,[1],−2730 ± 1789 pA
same,ACh-evoked currents,[1]; n=7,−3992 ± 1649 pA
COc1cc(OC)c(NC(=O)Nc2cc(C)on2)cc1Cl [PNU120596],cells with detectable PNU282987-evoked currents in the presence of PNU120596,[2],24/28
same,PNU282987-evoked current amplitude in the presence of PNU120596,[2]; SD,−1275 ± 1668 pA
same,increase in PNU282987-evoked current amplitudes in the presence of PNU120596,[2]; SD,54 ± 99 fold
"Cl.O=C(N[C@H]1CN2CCC1CC2)c1ccc(Cl)cc1 [PNU282987, N-[(3R)-1-Azabicyclo[2.2.2]oct-3-yl]-4-chlorobenzamide hydrochloride]",PNU282987-evoked current amplitudes in some cells (relatively small),[2],10–20 pA
same,cells in which PNU282987 evoked currents,[2],18/28
same,PNU282987-evoked current amplitude before PNU120596,[2]; SD,−29 ± 38 pA
